Usually EC50 stands for the concentration giving half of the maximal effect.

Each structure is given as a SMILES string. Counter-ions that a name gives are not always drawn.

In experiment [1] the test system is pseudotyped VSV G particles (VSVpp) in Huh7-high CD81 cells. As to the kind of experiment: microbe, parasite or virus in culture. It is filed as cell-based, vesicular stomatitis virus. The following applies: Vesicular stomatitis virus, 72 h, read-out: VSVpp (EC50, μM).
Experiment [2] deals with Pseudotyped HCV GT1b particles (HCVpp), entry into Huh7-high CD81 cells. In words: microbe, parasite or virus in culture. The experiment is classed as cell-based, HCV GT1b Con1 strain. The settings on record: Hepatitis C virus, GT1B, 72 h, read-out: HCVpp GT-1b (EC50, μM).

As for `CCCCC(=O)Nc1ccc(-c2c(Cl)cc(Nc3n[nH]c(N)n3)cc2Cl)cc1` [Compound 9, Pentanoic acid [4′-(5-amino-1H-[1,2,4]triazol-3-ylamino)-2′,6′-dichloro-biphenyl-4-yl]-amide], the EC50 in experiment [1] is 5.05 µM; in experiment [2], 0.014 µM.

For the compound `CS(=O)(=O)c1ccc(-c2c(F)cc(Nc3nc(N)n[nH]3)cc2F)cc1` [Compound 76, N^5-(2,6-difluoro-4′-(methylsulfonyl)biphenyl-4-yl)-1H-[1,2,4]-triazole-3,5-diamine], the EC50 in experiment [1] was over 10 µM; in experiment [2], 0.246 µM.

As to `COCC(=O)Nc1ccc(-c2c(Cl)cc(Nc3n[nH]c(N)n3)cc2Cl)cc1` [Compound 73, N-(4′-(5-amino-1H-[1,2,4]triazol-3-ylamino)-2′,6′-dichlorobiphenyl-4-yl)-2-methoxyacetamide], the EC50 in experiment [1] was found to be 24.1 µM; in experiment [2] it was 0.113 µM.

With `CN1C(C)(C)CC(Sc2ccc(-c3c(Cl)cc(Nc4n[nH]c(N)n4)cc3C(F)(F)F)cc2)CC1(C)C` [Compound 127, N*3*-[6-Chloro-4′-(1,2,2,6,6-pentamethyl-piperidin-4-ylsulfanyl)-2-trifluoromethyl-biphenyl-4-yl]-1H-[1,2,4]triazole-3,5-diamine], the EC50 in experiment [1] was 9.69 µM; in experiment [2], 0.144 µM.

For the compound `CN(C(=O)OC(C)(C)C)C(C)(C)COc1ccc(-c2c(Cl)cc(Nc3n[nH]c(N)n3)cc2C(F)(F)F)cc1` [Compound 128, {2-[4′-(5-Amino-1H-[1,2,4]triazol-3-ylamino)-6′-chloro-2′-trifluoromethyl-biphenyl-4-yloxy]-1,1-dimethyl-ethyl}-methyl-carbamic acid tert-butyl ester], the EC50 was found to be 9.26 µM in experiment [1] and 0.011 µM in experiment [2].

On to `Nc1n[nH]c(Nc2cc(F)c(-c3ccc(C(F)(F)F)cc3)c(C(F)(F)F)c2)n1` [Compound 246, N^5-[6-Fluoro-2,4′-bis-trifluoromethylbiphenyl-4-yl]-1H-[1,2,4]-triazole-3,5-diamine], for which the EC50 in experiment [1] worked out at 37.9 µM; in experiment [2], 3.54 µM.

Regarding `Nc1nc(Nc2cc(Cl)c(-c3ccc(S(=O)(=O)C4CC4)cc3)c(C(F)(F)F)c2)n[nH]1` [Compound 188, N3-(2-chloro-4′-(cyclopropylsulfonyl)-6-(trifluoromethyl)biphenyl-4-yl)-1H-1,2,4-triazole-3,5-diamine], the EC50 in experiment [1] was 0.09 µM; in experiment [2], 0.089 µM.

Consider `CNS(=O)(=O)c1ccc(-c2c(F)cc(Nc3nc(N)n[nH]3)cc2C(F)(F)F)cc1` [Compound 72, 4′-(5-Amino-2H-[1,2,4]-triazol-3-ylamino)-6′-fluoro-2′-trifluoromethyl-biphenyl-4-sulfonic acid methylamide], for which the figures for the EC50 in experiment [1] and in experiment [2] were over 10 µM and 0.154 µM, respectively.

As for `Nc1nc(Nc2cc(Cl)c(-c3ccc(OC[C@H]4CCCN4)cc3)c(C(F)(F)F)c2)n[nH]1` (stereo in doubt) [Compound 279, N*3*-[6-Chloro-4′-(pyrrolidin-2-ylmethoxy)-2-trifluoromethyl-biphenyl-4-yl]-1H-[1,2,4]triazole-3,5-diamine], the EC50 turned out to be 37 µM in experiment [1] and 0.193 µM in experiment [2].

In the case of `Cc1ccc(-c2c(F)cc(Nc3nc(N)n[nH]3)cc2C(F)(F)F)cc1` [Compound 247, N^5-[6-Fluoro-4′-methyl-2-trifluoromethylbiphenyl-4-yl]-1H-[1,2,4]-triazole-3,5-diamine], the EC50 in experiment [1] came to 10.7 µM; in experiment [2], 1.7 µM.

As for `CC(C)(C)OC(=O)[C@@H]1CCCN1S(=O)(=O)c1ccc(-c2c(Cl)cc(Nc3n[nH]c(N)n3)cc2C(F)(F)F)cc1` [Compound 3, (S)-1-[4′-(5-Amino-1H-[1,2,4]triazol-3-ylamino)-2′-chloro-6′-trifluoromethyl-biphenyl-4-sulfonyl]-pyrrolidine-2-carboxylic acid tert-butyl ester], the concentration for a half-maximal effect (EC50) in experiment [1] is 4.37 µM; in experiment [2], 0.005 µM.

`Nc1nc(Nc2ccc(-c3ccccc3Cl)c(Cl)c2)n[nH]1` [Compound 155, N*3*-(2,2′-Dichloro-biphenyl-4-yl)-1H-[1,2,4]triazole-3,5-diamine]: the EC50 in experiment [1] was 7.46 µM; in experiment [2], 1.66 µM.

As to `CS(=O)(=O)c1ccc(-c2c(Cl)cc(Nc3n[nH]c(N)n3)cc2Cl)cc1F` [Compound 121, N-3-(2,6-Dichloro-3′-fluoro-4′-methanesulfonyl-biphenyl-4-yl)-1H-[1,2,4]triazole-3,5-diamine], the values for the EC50 in experiment [1] and in experiment [2] were 0.08 µM and 0.068 µM, respectively.

Consider `CS(=O)(=O)c1ccc(-c2c(F)cc(Nc3n[nH]c(N)n3)cc2Cl)cc1` [Compound 30, N*3*-(2-Chloro-6-fluoro-4′-methanesulfonyl-biphenyl-4-yl)-1H-[1,2,4]triazole-3,5-diamine], for which the EC50 in experiment [1] worked out at 1.53 µM; in experiment [2], 0.107 µM.

Turning to `CNCCNS(=O)(=O)c1ccc(-c2c(Cl)cc(Nc3n[nH]c(N)n3)cc2C(F)(F)F)cc1` [Compound 213, 4′-(5-amino-1H-1,2,4-triazol-3-ylamino)-2′-chloro-N-(2-(methylamino)ethyl)-6′-(trifluoromethyl)biphenyl-4-sulfonamide hydrochloride], the figures for the EC50 in experiment [1] and in experiment [2] were over 10 µM and 0.062 µM, respectively.

In the case of `COc1ccc(-c2c(F)cc(Nc3nc(N)n[nH]3)cc2C(F)(F)F)cc1` [Compound 86, N^5-[6-Fluoro-4′-methoxy-2-trifluoromethylbiphenyl-4-yl]-1H-[1,2,4]-triazole-3,5-diamine], the figures for the EC50 in experiment [1] and in experiment [2] were 8.87 µM and 0.525 µM, respectively.

Consider `Nc1nc(Nc2cc(Cl)c(-c3ccc(S(=O)(=O)CCO)cc3)c(C(F)(F)F)c2)n[nH]1` [Compound 162, 2-[4′-(5-Amino-1H-[1,2,4]triazol-3-ylamino)-2′-chloro-6′-trifluoromethyl-biphenyl-4-sulfonyl]-ethanol], for which the EC50 in experiment [1] is over 10 µM; in experiment [2], 0.126 µM.

With `NC(=O)c1cccc(-c2c(Cl)cc(Nc3n[nH]c(N)n3)cc2Cl)c1` [Compound 158, 4′-(5-amino-1H-1,2,4-triazol-3-ylamino)-2′,6′-dichlorobiphenyl-3-carboxamide], the values for the EC50 in experiment [1] and in experiment [2] were over 10 µM and 0.539 µM, respectively.

Take `Nc1nc(Nc2cc(Cl)c(-c3ccc(S(=O)(=O)NC4COC4)cc3)c(C(F)(F)F)c2)n[nH]1` [Compound 295, 4′-(5-amino-1H-1,2,4-triazol-3-ylamino)-2′-chloro-N-(oxetan-3-yl)-6′-(trifluoromethyl)biphenyl-4-sulfonamide]: the figures for the EC50 in experiment [1] and in experiment [2] were 10 µM and 0.022 µM, respectively.

Take `Nc1nc(Nc2cc(Cl)c(-c3ccc(S(=O)(=O)CC4CCCNC4)cc3)c(C(F)(F)F)c2)n[nH]1` (stereo not shown) [Compound 25, N*3*-[2-Chloro-4′-(piperidin-3-ylmethanesulfonyl)-6-trifluoromethyl-biphenyl-4-yl]-1H-[1,2,4]triazole-3,5-diamine; hydrochloride]: the EC50 in experiment [1] is over 10 µM; in experiment [2], 0.059 µM.

For `CS(=O)(=O)n1ccc2cc(-c3c(Cl)cc(Nc4n[nH]c(N)n4)cc3Cl)ccc21` [Compound 42, N*3*-[3,5-Dichloro-4-(1-methanesulfonyl-1H-indol-5-yl)-phenyl]-1H-[1,2,4]triazole-3,5-diamine], the results for the EC50 in experiment [1] and in experiment [2] were 2.27 µM and 0.212 µM, respectively.

Turning to `COc1ccccc1-c1c(Cl)cc(Nc2n[nH]c(N)n2)cc1Cl` [Compound 120, N-3-(2,6-Dichloro-2′-methoxy-biphenyl-4-yl)-1H-[1,2,4]triazole-3,5-diamine], the EC50 is 1.12 µM in experiment [1] and 0.181 µM in experiment [2].

With `CC(C)N1CC(C)(NS(=O)(=O)c2ccc(-c3c(Cl)cc(Nc4n[nH]c(N)n4)cc3C(F)(F)F)cc2)C1` [Compound 210, 4′-(5-amino-1H-1,2,4-triazol-3-ylamino)-2′-chloro-N-(1-isopropyl-3-methylazetidin-3-yl)-6′-(trifluoromethyl)biphenyl-4-sulfonamide hydrochloride], the EC50 was determined as 4.41 µM in experiment [1] and 0.021 µM in experiment [2].

As to `CC(C)(C)Oc1ccc(-c2c(Cl)cc(Nc3n[nH]c(N)n3)cc2C(F)(F)F)cc1` [Compound 230, N*3*-(4′-tert-Butoxy-6-chloro-2-trifluoromethyl-biphenyl-4-yl)-1H-[1,2,4]triazole-3,5-diamine], the EC50 in experiment [1] is over 10 µM; in experiment [2], 0.332 µM.

As to `CNC(=O)c1cc(-c2c(Cl)cc(Nc3n[nH]c(N)n3)cc2C(F)(F)F)ccc1F` [Compound 292, 4′-(5-amino-1H-1,2,4-triazol-3-ylamino)-2′-chloro-4-fluoro-N-methyl-6′-(trifluoromethyl)biphenyl-3-carboxamide], the EC50 in experiment [1] was found to be 29.2 µM; in experiment [2], 0.647 µM.

`Nc1nc(Nc2cc(Cl)c(-c3ccc(O[C@H]4CCNC4)cc3)c(Cl)c2)n[nH]1` [Compound 271, N*3*-[2,6-Dichloro-4′-((S)-pyrrolidin-3-yloxy)-biphenyl-4-yl]-1H-[1,2,4]triazole-3,5-diamine]: the EC50 came out at 4.39 µM in experiment [1] and 0.12 µM in experiment [2].

As to `Nc1nc(Nc2cc(Cl)c(-c3ccc(S(=O)(=O)NCCO)cc3)c(C(F)(F)F)c2)n[nH]1` [Compound 161, 4′-(5-Amino-1H-[1,2,4]triazol-3-ylamino)-2′-chloro-6′-trifluoromethyl-biphenyl-4-sulfonic acid (2-hydroxy-ethyl)-amide], the EC50 in experiment [1] is 26.8 µM; in experiment [2] it was 0.058 µM.

Turning to `CC(C)(C)CCN(CCOc1ccc(-c2c(Cl)cc(Nc3n[nH]c(N)n3)cc2C(F)(F)F)cc1)CCC(C)(C)C` [Compound 137, N*3*-(4′-{2-[Bis-(3,3-dimethyl-butyl-amino)-ethoxy}-6-chloro-2-trifluoromethyl-biphenyl-4-yl]-1H-[1,2,4]triazole-3,5-diamine], the EC50 was over 10 µM in experiment [1] and 0.062 µM in experiment [2].

Turning to `CCCOC(=O)Nc1ccc(-c2c(Cl)cc(Nc3n[nH]c(N)n3)cc2C(F)(F)F)cc1` [Compound 237, [4′-(5-amino-1H-[1,2,4]triazol-3-ylamino)-2′-chloro-6′-trifluoromethyl-biphenyl-4-yl]-carbamic acid propyl ester], the EC50 in experiment [1] worked out at 3.67 µM; in experiment [2], 0.058 µM.

The record behind these values is patent publication US9693997B2, “Antiviral compounds” (priority 2013, dated 2017).
